Source: patent publication US12269859B2, “Synthetic immune receptors and methods of use thereof” (Angeles Therapeutics, Inc., priority 2016, dated 2025)
“Also recorded” adds a separate entry of the source.

Assays:
[1] = tested on: target antigen-expressing cell line; experiment: Jurkat NFAT-GFP assay, coculture with target cell lines expressing the respective target antigen (summary Table 10A); assay type: cell-based, human; design: key: The signs +/−, +, 2+ etc. after the name of the cell lines indicate the relative degree of positivity on the Jurkat-NFAT-GFP assay as measured by the % GFP positive cells; +: relative degree of positivity on the Jurkat-NFAT-GFP assay as measured by the % GFP positive cells; 2+: relative degree of positivity on the Jurkat-NFAT-GFP assay as measured by the % GFP positive cells; settings: relative % GFP positive cells; for NFAT-GFP ASSAY Positive Cell lines: RAJI: SIR-expressing Jurkat-NFAT-GFP cells cocultured with RAJI; for NFAT-GFP ASSAY Positive Cell lines: NALM6: SIR-expressing Jurkat-NFAT-GFP cells cocultured with NALM6
Experimental: (B) Induction of NFAT promoter driven GFP expression. The control vector- and SIR-expressing Jurkat-NFAT-GFP cocultured for 4-24 hours with the target antigen-expressing cell line (described above) and their ability to bind to the target antigen is assayed by measuring induction of GFP expression using Flow Cytometry. Cellular supernatant is collected and assayed for the induction of cytokines (e.g., IL2).
Jurkat NFAT-GFP Assay For Synthetic Immune Receptors. The Jurkat-NFAT-GFP cells are engineered in such a way that the IL-2 promoter, which carries NFAT binding sites, is cloned upstream of the GFP gene. These cells have been used to study signaling via TCR and CAR. The different SIRs were stably expressed in Jurkat NFAT-GFP cells by lentiviral mediated gene transfer, followed by selection with puromycin. The SIR-expressing Jurkat-NFAT-GFP cells were cocultured with the target cells at E:T ratio of approximately 1:2 for approximately 4 hours to 18 hours. When the interaction between SIRs and their target antigen results in activation of the NFAT pathway, GFP expression is induced.
Induction of GFP expression by coculturing of Jurkat-NFAT-GFP cells expressing different SIR constructs and the different target cells was studied essentially as described previously (Wu, Roybal, Puchner, Onuffer, & Lim, 2015). GFP expression was monitored by FACS analysis. A few representative examples of this assay are shown in the FIG. 13A-B. In panel A, control Jurkat-NFAT-GFP cells or those expressing SIRs targeting CD19 (clone ID 051716-I08), MPL (Clone ID: 040716-A07) and BCMA (Clone ID: 011116-A07) were incubated with RAJI (top), HEL (middle) or U266 (bottom) cells, respectively. […] In panel B, Jurkat cells expressing SIR targeting CDH6 (Clone ID: 051716-J05), CD276 (Clone ID: 050516-Q06) and Her2/neu (Clone ID: 050516-I03) were incubated with SKOV3 (top) and […] (middle and bottom) cells, respectively. […] The Jurkat-NFAT-GFP cells were engineered to express different SIRs targeting other antigens and the experiment repeated upon coculture with the target cells expressing their respective target antigen. The Jurkat-NFAT-GFP (parental) cells were used as control. The names of different SIRs, their SEQ ID NOs, component antigen binding domains and TCR chains can be determined by reference to Tables 7A-7H. A SIR is considered positive in the assay in case the SIR expressing Jurkat-NFAT-GFP cells show greater % GFP positive cells when cultured with the target cell line as compared to parental Jurkat-NFAT-GFP cells. […] The signs +/−, +, 2+ etc. after the name of the cell lines indicate the relative degree of positivity on the Jurkat-NFAT-GFP assay as measured by the % GFP positive cells after culture of the SIR expressing Jurkat-NFAT-GFP cells with that cell line. […] In addition, great diversity of response against the same target cell line is observed with Jurkat cells expressing SIRs containing different antigen binding domains targeting the same antigen (e.g., SIRs having antigen binding domains derived form different CD19 antibodies) even when the SIRs share the same TCR chains and linkers. Finally, Jurkat cells expressing SIRs targeting different antigens (e.g. CD19 vs CD20) show a diversitiy of response when exposed to the same target cell line. Thus, a diverse immune response can be generated against a single target cell by combining SIRs with different TCR chains, linkers, antigen binding domains and target specificity. Table 10A also summarizes the results of GLuc based T cell cytotoxicity assay observed with different SIRs when exposed to their target cell lines. […]

RAJI cells = experiment: GLuc cytotoxicity assay, RAJI-GLuc cells; assay type: cell-based, human
Experimental: (D) Assay for Cytotoxic Activity in vitro and in vivo: The uninfected T cells or those expressing a control vector or SIR are cocultured with the target cell lines expressing a non-secretory form of a luciferase (such as GLuc, NLuc, Turboluc 16 etc.) for 4-96 hours and induction of cell lysis examined by measuring the luciferase activity as described in PCT/US17/52344. Alternate methods for measurement of cytotoxic activity (e.g., ^51Cr release assay or LDH release assay) can be used as well. The activity of T cells expressing a SIR can be also assayed in vivo using appropriate xenograft models in immunodeficient mice.
Cell death assay. To measure cell death, a novel assay based on ectopic cytosolic expression of Gluc or NLuc was utilized as described in PCT/US17/52344 “A Non-Radioactive Cytotoxicity Assay”. The method involves expression of a reporter in a target cells in a manner so that it is preferentially retained within the healthy cells but is either released from dead and dying cells or whose activity can be preferentially measured in dead and dying cells. The preferred reporter for this assay are 1) non-secreted forms of luciferases from the copepods, such as Gaussia princeps, Pleuromamma abdominalis, Metridia pacifica, Metridia curticauda, Metridia asymmetrica, Metridia okhotensis, Metridia longa, Lucicutia ovaliformis, Heterorhabdus tanneri, and Pleuromamma scutullata 2) engineered luciferase reporters from deep sea shrimp, such as NanoLuc. The sequence of several such reporter vectors is provided in SEQ ID NO: 881 to SEQ ID NO: 887. The above vectors were used to generate retrovirus and lentiviruses which in turn were used to generate polyclonal population of several target cell lines stably expressing GLuc, NLuc, TurboLuc or MLuc7 following selection with appropriate antibiotics. Unless indicated otherwise, the target cells stably expressing the different luciferases (GLuc, Nluc, MLuc7 or TurboLuc16) were plated in triplicate in a 384 well plate in the media used for growing the target cells. Target cells which grow in suspension were generally plated at a concentration of 2-3×10^4 per well, while target cells which grow as adherent monolayers were plated at a concentration of 1-2×10^4 per well. Unless indicated otherwise, the target cells were cocultured with the genetically modified T cells (i.e. those expressing SIR or CAR) at an Effector:Target (E:T) ratio varying from 1:1 to 10:1 for 4 hours to 96 hours. In the case target cells grow as adherent cells (e.g., HeLa cells), they were allowed to attach to the bottom of the wells overnight before the T cells were added. T cells mediated induction of lysis of target cells was assayed by increase of luciferase activity as measured by BioTek synergy plate reader by directly injecting 0.5×CTZ assay buffer containing native coeloentrazine (Nanaolight).
CTZ assay. A 100× stock solution of native coelenterazine (CTZ; Nanolight, cat #303) was made by dissolving 1 mg of lyophilized CT powder in 1.1 ml of 100% Methanol supplemented with 30 μl of 6N HCl to avoid oxidation of CTZ with time. To make CTZ assay buffer, the 100× stock solution of CTZ was diluted to 0.5× concentration in PBS. Unless indicated otherwise, a total volume of 15 μl of the CTZ assay buffer (as prepared above) was added to each well of a 384-well white plate (Greiner, 384 well white plate cat #781075) containing cells expressing the non-secretory form of the luciferase in approximately 50-60 μl volume of medium and plates were read for luminescence in endpoint mode using BioTek synergyH4 plate reader. For 96 well plates, cells were plated in 200 μl of media and approximately 50 μl of 0.5×CTZ assay buffer was added. Unless indicated otherwise, the 0.5×CTZ assay buffer was used for assaying the activity of GLuc, TurboLuc16, and MLuc7. The CTZ assay buffer (diluted to 0.125× concentration) was also used for measurement of NLuc activity in some experiments (see below).

| Compound | NFAT-GFP ASSAY Positive Cell lines: RAJI [1] | lysis of target cells by increase of GLuc activity (in words) (RAJI cells; E:T 10:1, 4 hours) | also measured |
| --- | --- | --- | --- |
| CD8SP-FMC63-vL-Gly-Ser-Linker-FMC63-vH-Myc-[preTCRa-Del48]-F-F2A-PAC [SEQ ID NO:914] | RAJI (+) | – | – |
| CD8SP-CD20-2F2-vL-[canine-TCRb-opt]-F-P2A-CD20-2F2-vH-[canine-TCRa-opt]-F-F2A-PAC [SEQ ID NO:1113] | RAJI (+/−) | effective induction of target cell lysis | – |
| CD8SP-FMC63-scFv-V5-[TCRb-S57C-opt1]-F-P2A-SP-FMC63-scFv-MYC-[TCRa-T48C-opt1]-T2A-Pac [SEQ ID NO:910] | RAJI (+/−) | – | – |
| CD8SP-FMC63-vL-Streptag-[hTCRb-R79G]-F-P2A-SP-FMC63-vH-Myc4-[hTCRa-S61R]-F-F2A-PAC [SEQ ID NO:938] | RAJI (+/−) | – | – |
| C[C@@H]1CC[C@@]2(OC1)O[C@H]1[C@@H](O)[C@H]3[C@@H]4CC[C@H]5C[C@@H](O[C@@H]6O[C@H](CO)[C@H](O[C@@H]7O[C@H](CO)[C@@H](O)[C@H](O[C@@H]8OC[C@@H](O)[C@H](O)[C@H]8O)[C@H]7O[C@@H]7O[C@H](CO)[C@H](O)[C@H](O[C@@H]8O[C@H](CO)[C@@H](O)[C@H](O)[C@H]8O)[C@H]7O)[C@H](O)[C@H]6O)[C@H](O)C[C@]5(C)[C@H]4CC[C@]3(C)[C@H]1[C@@H]2C [digitonin, Digitonin, reference compound] | – | – | mean Gluc values (RAJI cells; E:T 10:1, 4 hours): 3869 |
| CD8SP-FMC63-vL-G4Sx2-[hTCRa-S61R-opt]-F-F2A-FMC63-vH-G4Sx2-[hTCRb-R79G-opt]-F-P2A-PAC [SEQ ID NO:955] | RAJI (+/−) | – | – |
| CD8SP-CD19Bu12-vL-Gly-Ser-Linker-CD19Bu12-vH-V5-[hTCRb-WT]-F-P2A-PAC [SEQ ID NO:1022] | RAJI (+) | failed to induce lysis of RAJI cells | – |
| CD8SP-FMC63-vL-Myc-[hTCRa-T48C-opt1]-F-F2A-FMC63-VH-V5-[hTCRb-C57C-opt1]-F-P2A-PAC [SEQ ID NO:902] | – | can induce effective lysis of the target cells | – |
| CD8SP-FMC63-vL-Myc2-[hTCRb-R79G-opt]-F-P2A-SP-FMC63-vH-Myc4-[hTCRa-S61R-opt]-F-F2A-PAC [SEQ ID NO:937] | RAJI (+/−) | – | – |
| CD8SP-FMC63-vL-Gly-Ser-Linker-FMC63-vH-V5-[hTCRb-S57C-opt]-F-P2A-PAC [SEQ ID NO:912] | RAJI (+/−) | failed to induce lysis of RAJI cells | – |
| CD8SP-FMC63-vL-Gly-Ser-Linker-FMC63-vH-V5-[hTCRb-S57C-opt]-F-P2A-SP-Myc-[hTCRa-T48C-opt]-F-F2A-PAC [SEQ ID NO:991] | +/− | – | NFAT-GFP ASSAY Positive Cell lines: NALM6 [1]: + |
| CD8SP-FMC63-vL-V5-[mTCRb-opt]-F-P2A-SP-FMC63-vH-Myc-[mTCRa-opt]-F-F2A-PAC [SEQ ID NO:953] | – | increase in GLuc activity | lysis of target cells by increase of GLuc activity (in words) (RAJI cells; E:T 1:1, 96 hours): increase in GLuc activity |
| CD8SP-FMC63-vL-V5-[hTCRb-S57C-opt]-F-P2A-SP-FMC63-vH-Myc-[hTCRa-T48C-opt]-F-F2A-PAC [SEQ ID NO:951] | – | induced effective target cell lysis; also recorded: Modest cytotoxicity | – |
| CD8SP-FMC63-vL-Gly-Ser-Linker-FMC63-vH-V5-[hTCRb-WT]-F-P2A-PAC [SEQ ID NO:911] | RAJI (+) | – | – |
| CD8SP-FMC63-vL-V5-[hTCRb-WT]-F-P2A-SP-FMC63-vH-Myc-[hTCRa-WT]-F-F2A-PAC [SEQ ID NO:922] | RAJI (2+) | fails to cause significant target cell lysis | lysis of target cells by increase of GLuc activity (in words) (RAJI cells; E:T 1:1, 96 hours): fails to cause significant target cell lysis |
| IgHSP-FMC63-vH-[hTCRb-C57C-opt]-F-P2A-CD8SP-FMC63-VL-MYC-[hTCRa-T48C-opt]-F-F2A-Pac [SEQ ID NO:901] | RAJI(2+), NALM6(2+) | can also induce effective lysis of the target cells | NFAT-GFP ASSAY Positive Cell lines: NALM6 [1]: RAJI(2+), NALM6(2+) |
